Source: publication PMC9316313, “Biochemical Properties of Atranorin-Induced Behavioral and Systematic Changes of Laboratory Rats” (Life, 2022)

Target: T1, human serum albumin (HSA) (Homo sapiens, UniProt P02768)
T1 construct: gene ALB; Albumin from human serum (A1887, Sigma Aldrich)
Experiment: intrinsic fluorescence quenching (Stern-Volmer, binding constant KB), synchronous and 3D fluorescence
Details: read-out: intrinsic fluorescence quenching (Stern-Volmer, binding constant KB), synchronou (converted)

T1 sequence (P02768 25-609): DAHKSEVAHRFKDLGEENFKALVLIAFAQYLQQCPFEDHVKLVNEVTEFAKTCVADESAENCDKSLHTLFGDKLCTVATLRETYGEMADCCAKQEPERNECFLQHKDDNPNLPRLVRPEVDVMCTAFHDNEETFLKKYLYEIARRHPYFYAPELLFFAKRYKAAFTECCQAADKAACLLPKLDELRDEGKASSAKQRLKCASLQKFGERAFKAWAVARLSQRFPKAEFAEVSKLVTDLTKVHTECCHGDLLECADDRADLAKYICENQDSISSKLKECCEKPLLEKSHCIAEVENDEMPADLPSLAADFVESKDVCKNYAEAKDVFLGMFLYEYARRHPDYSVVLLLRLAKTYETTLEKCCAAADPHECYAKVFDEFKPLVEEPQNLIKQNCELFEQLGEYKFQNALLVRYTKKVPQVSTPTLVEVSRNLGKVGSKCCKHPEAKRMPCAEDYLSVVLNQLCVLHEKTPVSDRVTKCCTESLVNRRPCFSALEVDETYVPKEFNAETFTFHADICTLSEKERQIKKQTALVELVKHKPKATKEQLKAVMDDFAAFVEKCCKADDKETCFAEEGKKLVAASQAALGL

Kd: 0.235 µM
Compound: COC(=O)c1c(C)cc(OC(=O)c2c(C)cc(O)c(C=O)c2O)c(C)c1O [ATR, Atranorin]
